This series concerns rodent lifetime carcinogenesis bioassay, tumor incidence TD50. Put plainly: carcinogenic potency in animals, long-term in vivo studies, CPDB compilation (AID 1745844).

The term TD50 denotes the dose at which the toxic effect under study appears in half of the subjects.

Active and inactive are the calls of the source. How the calls were made is not given here.

Regarding `CCN(N=O)C(=O)NCC(C)=O`, the TD50 is, setting by setting: (hamster, strain Syrian Golden, females, by gavage, site: forestomach, lesion: carcinoma, dosed 30 weeks, study length 85 weeks) 2.19 mg/kg/day; (hamster, strain Syrian Golden, females, by gavage, site: forestomach, lesion: several types, types named in the paper, dosed 30 weeks, study length 85 weeks) 0.983 mg/kg/day; (hamster, strain Syrian Golden, females, by gavage, site: spleen, lesion: all vascular tumors, dosed 30 weeks, study length 85 weeks) 0.394 mg/kg/day; (hamster, strain Syrian Golden, males, by gavage, site: forestomach, lesion: carcinoma, dosed 30 weeks, study length 85 weeks) 1.92 mg/kg/day; (hamster, strain Syrian Golden, males, by gavage, site: forestomach, lesion: several types, types named in the paper, dosed 30 weeks, study length 85 weeks) 0.506 mg/kg/day; (hamster, strain Syrian Golden, males, by gavage, site: liver, lesion: cholangioma, dosed 30 weeks, study length 85 weeks) 1.1 mg/kg/day. The TD50 by setting is: (hamster, strain Syrian Golden, males, by gavage, site: spleen, lesion: hemangiosarcoma, dosed 30 weeks, study length 85 weeks) 0.865 mg/kg/day; (rat, strain Fischer 344, females, by gavage, site: lung, lesion: one or several types, types not named, dosed 30 weeks, study length 104 weeks) 0.873 mg/kg/day; (rat, strain Fischer 344, females, by gavage, site: mammary tissue, wider than the gland, lesion: carcinoma, dosed 30 weeks, study length 104 weeks) 0.192 mg/kg/day; (rat, strain Fischer 344, females, by gavage, site: nervous system, lesion: one or several types, types not named, dosed 30 weeks, study length 104 weeks) 1.66 mg/kg/day; (rat, strain Fischer 344, females, by gavage, site: uterus, lesion: one or several types, types not named, dosed 30 weeks, study length 104 weeks) 1.84 mg/kg/day; (rat, strain Fischer 344, females, in drinking water, site: colon, lesion: one or several types, types not named, dosed 30 weeks, study length 104 weeks) 1.13 mg/kg/day. Besides, the TD50 is 5.53 mg/kg/day (rat, strain Fischer 344, females, in drinking water, site: liver, lesion: one or several types, types not named, dosed 30 weeks, study length 104 weeks); 0.885 mg/kg/day (rat, strain Fischer 344, females, in drinking water, site: lung, lesion: one or several types, types not named, dosed 30 weeks, study length 104 weeks); 0.748 mg/kg/day (rat, strain Fischer 344, females, in drinking water, site: mammary tissue, wider than the gland, lesion: carcinoma, dosed 30 weeks, study length 104 weeks); 0.605 mg/kg/day (rat, strain Fischer 344, females, in drinking water, site: nervous system, lesion: one or several types, types not named, dosed 30 weeks, study length 104 weeks); 1.79 mg/kg/day (rat, strain Fischer 344, females, in drinking water, site: skin, lesion: one or several types, types not named, dosed 30 weeks, study length 104 weeks); 0.804 mg/kg/day (rat, strain Fischer 344, females, in drinking water, site: thyroid gland, lesion: follicular-cell tumor, dosed 30 weeks, study length 104 weeks). Moreover, the TD50 was 1.49 mg/kg/day (rat, strain Fischer 344, females, in drinking water, site: uterus, lesion: one or several types, types not named, dosed 30 weeks, study length 104 weeks); 0.499 mg/kg/day (rat, strain Fischer 344, males, by gavage, site: Zymbal's gland, lesion: one or several types, types not named, dosed 30 weeks, study length 104 weeks); 0.562 mg/kg/day (rat, strain Fischer 344, males, by gavage, site: colon, lesion: one or several types, types not named, dosed 30 weeks, study length 104 weeks); 0.861 mg/kg/day (rat, strain Fischer 344, males, by gavage, site: forestomach, lesion: one or several types, types not named, dosed 30 weeks, study length 104 weeks); 3.39 mg/kg/day (rat, strain Fischer 344, males, by gavage, site: liver, lesion: one or several types, types not named, dosed 30 weeks, study length 104 weeks); 1.37 mg/kg/day (rat, strain Fischer 344, males, by gavage, site: nervous system, lesion: one or several types, types not named, dosed 30 weeks, study length 104 weeks). The TD50 (rat, strain Fischer 344, males, by gavage, site: thyroid gland, lesion: follicular-cell tumor, dosed 30 weeks, study length 104 weeks) turned out to be 0.767 mg/kg/day; the TD50 (rat, strain Fischer 344, males, by gavage, site: tunica vaginalis, lesion: mesothelioma, dosed 30 weeks, study length 104 weeks) was 0.225 mg/kg/day; the TD50 (rat, strain Fischer 344, males, in drinking water, site: Zymbal's gland, lesion: one or several types, types not named, dosed 30 weeks, study length 104 weeks) amounted to 1.13 mg/kg/day; the TD50 (rat, strain Fischer 344, males, in drinking water, site: colon, lesion: one or several types, types not named, dosed 30 weeks, study length 104 weeks) is 0.524 mg/kg/day; the TD50 (rat, strain Fischer 344, males, in drinking water, site: lung, lesion: one or several types, types not named, dosed 30 weeks, study length 104 weeks) is 0.231 mg/kg/day; the TD50 (rat, strain Fischer 344, males, in drinking water, site: nervous system, lesion: one or several types, types not named, dosed 30 weeks, study length 104 weeks) was 0.127 mg/kg/day. Also, the TD50 (rat, strain Fischer 344, males, in drinking water, site: skin, lesion: one or several types, types not named, dosed 30 weeks, study length 104 weeks) is 0.982 mg/kg/day and the TD50 (rat, strain Fischer 344, males, in drinking water, site: tunica vaginalis, lesion: mesothelioma, dosed 30 weeks, study length 104 weeks) is 0.264 mg/kg/day. Besides, the carcinogen call (rat, strain Fischer 344, males, by gavage, site: lung, lesion: one or several types, types not named, dosed 30 weeks, study length 104 weeks) was “positive”.

Turning to `C=CC(OCC)OCC`, the TD50 amounted to 131 mg/kg/day (rat, strain Fischer 344, females, in drinking water, site: liver, lesion: hyperplastic nodule, dosed 102 weeks, study length 130 weeks); 123 mg/kg/day (rat, strain Fischer 344, females, in drinking water, site: liver, lesion: several types, types named in the paper, dosed 102 weeks, study length 130 weeks); 262 mg/kg/day (rat, strain Fischer 344, males, in drinking water, site: liver, lesion: hepatocellular carcinoma, dosed 102 weeks, study length 130 weeks); 266 mg/kg/day (rat, strain Fischer 344, males, in drinking water, site: liver, lesion: hyperplastic nodule, dosed 102 weeks, study length 130 weeks); 124 mg/kg/day (rat, strain Fischer 344, males, in drinking water, site: liver, lesion: several types, types named in the paper, dosed 102 weeks, study length 130 weeks).

Consider `CC1=C[C@H]2[C@@]3(O)[C@H](C)[C@@H](O)[C@]4(O)[C@H]([C@@H]3C=C(CO)C[C@]2(O)C1=O)C4(C)C`, for which the carcinogen call (mouse, strain AKR/J, females, i.p., site: lymphoreticular system, lesion: lymphatic leukemia, dosed 104 weeks, study length 104 weeks) is “negative (inactive)”; the carcinogen call (mouse, strain BALB/c, females, i.p., site: lymphoreticular system, lesion: one or several types, types not named, dosed 104 weeks, study length 104 weeks) is “negative (inactive)”; the carcinogen call (mouse, strain BALB/c, males, i.p., site: lymphoreticular system, lesion: one or several types, types not named, dosed 104 weeks, study length 104 weeks) was “negative (inactive)”; the carcinogen call (mouse, strain C3HeB, females, i.p., site: lymphoreticular system, lesion: one or several types, types not named, dosed 104 weeks, study length 104 weeks) is “negative (inactive)”; the carcinogen call (mouse, strain C3HeB, males, i.p., site: lymphoreticular system, lesion: one or several types, types not named, dosed 104 weeks, study length 104 weeks) is “negative (inactive)”; the carcinogen call (mouse, strain C57BL, females, i.p., site: lymphoreticular system, lesion: one or several types, types not named, dosed 104 weeks, study length 104 weeks) is “negative (inactive)”. Also, the TD50 runs as follows: (mouse, strain AKR/J, males, i.p., site: lymphoreticular system, lesion: lymphatic leukemia, dosed 104 weeks, study length 104 weeks) 8.26 mg/kg/day (inactive); (mouse, strain SJL/J, females, i.p., site: lymphoreticular system, lesion: reticulum-cell sarcoma, type B, dosed 104 weeks, study length 104 weeks) 92.6 mg/kg/day; (mouse, strain SWR, females, i.p., site: lymphoreticular system, lesion: lymphatic leukemia, dosed 104 weeks, study length 104 weeks) 2.21 mg/kg/day.

`CCCCC(CC)COP(=O)(OCC(CC)CCCC)OCC(CC)CCCC` (configuration not stated): the TD50 is 2220 mg/kg/day (mouse, strain B6C3F1, females, by gavage, site: liver, lesion: hepatocellular adenoma + hepatocellular carcinoma + neoplastic nodule, dosed 103 weeks, study length 104 weeks); 2220 mg/kg/day (mouse, strain B6C3F1, females, by gavage, site: liver, lesion: hepatocellular adenoma + hepatocellular carcinoma, dosed 103 weeks, study length 104 weeks); 2560 mg/kg/day (mouse, strain B6C3F1, females, by gavage, site: liver, lesion: hepatocellular carcinoma, dosed 103 weeks, study length 104 weeks); 13700 mg/kg/day (mouse, strain B6C3F1, females, by gavage, site: lung, lesion: alveolar/bronchiolar adenoma + alveolar/bronchiolar carcinoma, dosed 103 weeks, study length 104 weeks); 9000 mg/kg/day (mouse, strain B6C3F1, males, by gavage, site: liver, lesion: hepatocellular adenoma + hepatocellular carcinoma + neoplastic nodule, dosed 103 weeks, study length 104 weeks); 230000 mg/kg/day (inactive) (rat, strain Fischer 344, females, by gavage, site: any site (literature study), lesion: several types, types named in the paper, dosed 103 weeks, study length 104 weeks). Besides, the TD50 is, setting by setting: (rat, strain Fischer 344, males, by gavage, site: adrenal gland, lesion: pheochromocytoma + pheochromocytoma, malignant, dosed 103 weeks, study length 104 weeks) 5290 mg/kg/day; (rat, strain Fischer 344, males, by gavage, site: adrenal gland, lesion: pheochromocytoma, dosed 103 weeks, study length 104 weeks) 5290 mg/kg/day; (rat, strain Fischer 344, males, by gavage, site: any site (literature study), lesion: several types, types named in the paper, dosed 103 weeks, study length 104 weeks) 14200 mg/kg/day; (rat, strain Fischer 344, males, by gavage, site: thyroid gland + thyroid follicle, lesion: follicular-cell adenoma + cystadenoma, NOS, dosed 103 weeks, study length 104 weeks) 28000 mg/kg/day; (rat, strain Fischer 344, males, by gavage, site: thyroid gland + thyroid follicle, lesion: follicular-cell adenoma + follicular-cell carcinoma + cystadenoma, NOS, dosed 103 weeks, study length 104 weeks) 16700 mg/kg/day. For the same molecule, the carcinogen call (mouse, strain B6C3F1, males, by gavage, site: any site (literature study), lesion: several types, types named in the paper, dosed 103 weeks, study length 104 weeks) was “negative (inactive)”.

For `CN(N=O)c1ccncc1`, the carcinogen call runs as follows: (rat, strain BD VI, females, by gavage, site: any site (literature study), lesion: benign tumor, dosed 101 weeks, study length 101 weeks) “negative (inactive)”; (rat, strain BD VI, females, by gavage, site: any site (literature study), lesion: several types, types named in the paper, dosed 101 weeks, study length 101 weeks) “negative (inactive)”; (rat, strain BD VI, females, by gavage, site: liver, lesion: several types, types named in the paper, dosed 101 weeks, study length 101 weeks) “negative (inactive)”. The TD50 (rat, strain BD VI, females, by gavage, site: any site (literature study), lesion: malignant tumor, dosed 101 weeks, study length 101 weeks) was 26.8 mg/kg/day (inactive).

For `CN(C)C(=O)Nc1cccc(C(F)(F)F)c1`, the TD50 is 369 mg/kg/day (inactive) (mouse, strain B6C3F1, females, in feed, site: any site (literature study), lesion: several types, types named in the paper, dosed 103 weeks, study length 103 weeks); 1230 mg/kg/day (mouse, strain B6C3F1, females, in feed, site: liver, lesion: hepatocellular adenoma + hepatocellular carcinoma + neoplastic nodule, dosed 103 weeks, study length 103 weeks); 265 mg/kg/day (mouse, strain B6C3F1, males, in feed, site: any site (literature study), lesion: several types, types named in the paper, dosed 103 weeks, study length 103 weeks); 229 mg/kg/day (mouse, strain B6C3F1, males, in feed, site: liver, lesion: hepatocellular adenoma + hepatocellular carcinoma + neoplastic nodule, dosed 103 weeks, study length 103 weeks); 229 mg/kg/day (mouse, strain B6C3F1, males, in feed, site: liver, lesion: hepatocellular adenoma + hepatocellular carcinoma, dosed 103 weeks, study length 103 weeks); 1420 mg/kg/day (mouse, strain B6C3F1, males, in feed, site: lung, lesion: alveolar/bronchiolar adenoma + alveolar/bronchiolar carcinoma, dosed 103 weeks, study length 103 weeks). The TD50 is 55.4 mg/kg/day (rat, strain Fischer 344, males, in feed, site: liver, lesion: hepatocellular adenoma + hepatocellular carcinoma + neoplastic nodule, dosed 103 weeks, study length 104 weeks) and 55.4 mg/kg/day (inactive) (rat, strain Fischer 344, males, in feed, site: liver, lesion: neoplastic nodule, dosed 103 weeks, study length 104 weeks). In addition, the carcinogen call (rat, strain Fischer 344, females, in feed, site: any site (literature study), lesion: several types, types named in the paper, dosed 103 weeks, study length 104 weeks) was “negative (inactive)”.

These data come from PubChem BioAssay AID1745844 (Carcinogenic Potency Database (CPDB), 2022).
